What was measured:
[1] = test system: duck salad; assay: Test B flood test duck salad; format: in vivo, Heteranthera limosa
Procedure, shortened: (§1)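 Read-out is a visual response score from 0 (no effect) to 10 (complete control), assigned by comparison with untreated controls. Treatment was applied at the 2-leaf stage, and plants stayed in the greenhouse for twelve to sixteen days before scoring.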

[2] = test system: wheat; assay: Test B pre/postemergence wheat; format: in vivo, Triticum aestivum
Procedure, shortened: (§2)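 Herbicidal effect was estimated by eye on a ten-point control scale after plants spent twelve to sixteen days in a greenhouse following soil or foliar treatment. Foliar sprays targeted plants at one to four leaves; all doses were formulated in a non-phytotoxic solvent with surfactant.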

[3] = test system: rice; assay: Test B flood test rice; format: in vivo, Oryza sativa
Procedure, shortened: as §1

[4] = test system: cocklebur; assay: Test B pre/postemergence cocklebur; format: in vivo, Xanthium strumarium
Procedure, shortened: as §2

[5] = test system: surinam grass; assay: Test B pre/postemergence surinam grass; format: in vivo, Brachiaria decumbens
Procedure, shortened: as §2

[6] = test system: smallflower flatsedge; assay: Test B flood test smallflower flatsedge; format: in vivo, Cyperus difformis
Procedure, shortened: as §1

[7] = test system: bamyardgrass; assay: Test B flood test barnyardgrass; format: in vivo, Echinochloa crus-galli
Procedure, shortened: as §1

[8] = test system: crabgrass; assay: Test B pre/postemergence crabgrass; format: in vivo, Digitaria sanguinalis
Procedure, shortened: as §2

[9] = test system: bedstraw; assay: Test B pre/postemergence bedstraw; format: in vivo, Galium aparine; settings: Postemergence, Rate 62 g/ha; scale 0 to 10, 0 is no effect, 10 is complete control
Procedure, shortened: as §2

[10] = test system: rape; assay: Test B pre/postemergence rape; format: in vivo, Brassica napus
Procedure, shortened: as §2

[11] = test system: sugar beet; assay: Test B pre/postemergence sugar beet; format: in vivo, Beta vulgaris
Procedure, shortened: as §2

[12] = test system: blackgrass; assay: Test B pre/postemergence blackgrass; format: in vivo, Alopecurus myosuroides
Procedure, shortened: as §2

[13] = test system: wild oat; assay: Test B pre/postemergence wild oat; format: in vivo, Avena fatua
Procedure, shortened: as §2

[14] = test system: corn; assay: Test B pre/postemergence corn; format: in vivo, Zea mays
Procedure, shortened: as §2

[15] = test system: soybean; assay: Test B pre/postemergence soybean; format: in vivo, Glycine max
Procedure, shortened: as §2

[16] = test system: velvetleaf; assay: Test B pre/postemergence velvetleaf; format: in vivo, Abutilon theophrasti
Procedure, shortened: as §2

[17] = test system: purple nutsedge; assay: Test B pre/postemergence purple nutsedge; format: in vivo, Cyperus rotundus
Procedure, shortened: as §2

[18] = Rate 62 g/ha, flood test species, Pre-emergence, visual evaluation after twelve to sixteen days
[19] = Rate 125 g/ha, under heading Pre-emergence, flood test species, visual evaluation after twelve to sixteen days
[20] = Rate 250 g/ha, Pre-emergence (flood test species), scale 0 to 10, 0 is no effect, 10 is complete control
[21] = Rate 500 g/ha, Pre-emergence section of Table B, 0 to 10 scale (0 no effect, 10 complete control)
[22] = Postemergence, Rate 62 g/ha, scale 0 to 10, 0 is no effect, 10 is complete control
[23] = Postemergence, Rate 125 g/ha, scale of 0 to 10 where 0 is no effect and 10 is complete control
[24] = Preemergence, Rate 62 g/ha, scale of 0 to 10 where 0 is no effect and 10 is complete control
[25] = Preemergence, Rate 125 g/ha, scale of 0 to 10 where 0 is no effect and 10 is complete control
[26] = Preemergence, Rate 250 g/ha, scale 0 to 10 (0 no effect, 10 complete control)
[27] = Preemergence, Rate 500 g/ha, scale of 0 to 10 where 0 is no effect and 10 is complete control
[28] = Rate 500 g/ha, Postemergence, scale 0 to 10, 0 is no effect, 10 is complete control
[29] = Postemergence, Rate 250 g/ha, scale of 0 to 10, 0 is no effect, 10 is complete control

CC[C@@H](C)n1c(=O)on(C(=O)N(c2ccc(F)cc2F)C(C)C)c1=O [Compound 667]
Plant response rating, Ducksalad (0 to 10 scale, 0 is no effect, 10 is complete control) [1, 18]: 0 | Ducksalad plant response rating (0 to 10 scale, 0 is no effect, 10 is complete control) [1, 19]: 0 | Ducksalad plant response rating [1, 20]: 0 | Ducksalad plant response rating [1, 21]: 0 | Plant response rating, Wheat [2, 22]: 0 | Wheat plant response rating [2, 23]: 0 | Wheat plant response rating [2, 24]: 2 | Wheat plant response rating [2, 25]: 2 | Plant response rating, Wheat [2, 26]: 5 | Plant response rating, Wheat [2, 27]: 6 | Wheat plant response rating [2, 28]: 5 | Plant response rating, Rice (0 to 10 scale, 0 is no effect, 10 is complete control) [3, 18]: 0 | Rice plant response rating (0 to 10 scale, 0 is no effect, 10 is complete control) [3, 19]: 0 | Rice plant response rating [3, 20]: 0 | Rice plant response rating [3, 21]: 0 | Plant response rating, Cocklebur [4, 22]: 2 | Cocklebur plant response rating [4, 23]: 3 | Cocklebur plant response rating [4, 29]: 4 | Cocklebur plant response rating [4, 24]: 0 | Cocklebur plant response rating [4, 25]: 0 | Plant response rating, Cocklebur [4, 26]: 0 | Plant response rating, Cocklebur [4, 27]: 0 | Cocklebur plant response rating [4, 28]: 5 | Plant response rating, B. signalgrass [5, 22]: 0 | Plant response rating, B. signalgrass [5, 23]: 4 | B. signalgrass plant response rating [5, 29]: 6 | B. signalgrass plant response rating [5, 24]: 3 | B. signalgrass plant response rating [5, 25]: 5 | Plant response rating, B. signalgrass [5, 26]: 8 | Plant response rating, B. signalgrass [5, 27]: 8 | B. signalgrass plant response rating [5, 28]: 7 | Plant response rating, S. Flatsedge (0 to 10 scale, 0 is no effect, 10 is complete control) [6, 18]: 0 | S. Flatsedge plant response rating (0 to 10 scale, 0 is no effect, 10 is complete control) [6, 19]: 0 | S. Flatsedge plant response rating [6, 20]: 0 | S. Flatsedge plant response rating [6, 21]: 0 | Plant response rating, Barnyardgrass (0 to 10 scale, 0 is no effect, 10 is complete control) [7, 18]: 0 | Barnyardgrass plant response rating (0 to 10 scale, 0 is no effect, 10 is complete control) [7, 19]: 0 | Barnyardgrass plant response rating [7, 20]: 0 | Barnyardgrass plant response rating [7, 21]: 0 | Plant response rating, Crabgrass [8, 22]: 6 | Crabgrass plant response rating [8, 23]: 8 | Crabgrass plant response rating [8, 29]: 9 | Crabgrass plant response rating [8, 24]: 8 | Crabgrass plant response rating [8, 25]: 8 | Plant response rating, Crabgrass [8, 26]: 10 | Plant response rating, Crabgrass [8, 27]: 10 | Crabgrass plant response rating [8, 28]: 10 | Plant response rating, Bedstraw [9]: 0 | Plant response rating, Rape [10, 22]: 0 | Rape plant response rating [10, 23]: 4 | Rape plant response rating [10, 24]: 7 | Rape plant response rating [10, 25]: 8 | Plant response rating, Rape [10, 26]: 10 | Plant response rating, Rape [10, 27]: 10 | Rape plant response rating [10, 28]: 6 | Plant response rating, Sugarbeets [11, 22]: 0 | Sugarbeets plant response rating [11, 23]: 0 | Sugarbeets plant response rating [11, 24]: 5 | Sugarbeets plant response rating [11, 25]: 7 | Plant response rating, Sugarbeets [11, 26]: 8 | Plant response rating, Sugarbeets [11, 27]: 10 | Sugarbeets plant response rating [11, 28]: 3 | Plant response rating, Blackgrass [12, 22]: 6 | Blackgrass plant response rating [12, 23]: 8 | Blackgrass plant response rating [12, 29]: 8 | Blackgrass plant response rating [12, 24]: 8 | Blackgrass plant response rating [12, 25]: 8 | Plant response rating, Blackgrass [12, 26]: 8 | Plant response rating, Blackgrass [12, 27]: 10 | Blackgrass plant response rating [12, 28]: 8 | Plant response rating, Wild oats [13, 22]: 0 | Wild oats plant response rating [13, 23]: 4 | Wild oats plant response rating [13, 24]: 4 | Wild oats plant response rating [13, 25]: 8 | Plant response rating, Wild oats [13, 26]: 8 | Plant response rating, Wild oats [13, 27]: 10 | Wild oats plant response rating [13, 28]: 6 | Plant response rating, Corn [14, 22]: 4 | Corn plant response rating [14, 23]: 4 | Corn plant response rating [14, 29]: 4 | Corn plant response rating [14, 24]: 0 | Corn plant response rating [14, 25]: 4 | Plant response rating, Corn [14, 26]: 7 | Plant response rating, Corn [14, 27]: 10 | Corn plant response rating [14, 28]: 5 | Plant response rating, Soybean [15, 22]: 2 | Soybean plant response rating [15, 23]: 3 | Soybean plant response rating [15, 24]: 0 | Soybean plant response rating [15, 25]: 3 | Plant response rating, Soybean [15, 26]: 6 | Plant response rating, Soybean [15, 27]: 7 | Plant response rating, Velvetleaf [16, 22]: 5 | Velvetleaf plant response rating [16, 23]: 6 | Velvetleaf plant response rating [16, 24]: 6 | Velvetleaf plant response rating [16, 25]: 6 | Plant response rating, Velvetleaf [16, 26]: 8 | Plant response rating, Velvetleaf [16, 27]: 10 | Velvetleaf plant response rating [16, 28]: 8 | Plant response rating, Nutsedge [17, 22]: 0 | Nutsedge plant response rating [17, 23]: 0 | Nutsedge plant response rating [17, 24]: 0 | Nutsedge plant response rating [17, 25]: 0 | Plant response rating, Nutsedge [17, 26]: 3 | Plant response rating, Nutsedge [17, 27]: 7 | Nutsedge plant response rating [17, 28]: 0
